From PMC6600370 (International Journal of Molecular Sciences, 2019)

Tests used:
[1] = target: T1, Xanthine oxidase (from bovine milk) (Bos taurus, UniProt P80457); assay: XO assay with 6-MP substrate (6-thiouric acid formation, HPLC); type: biochemical; conditions: for Effect on 6-TU formation at 20 μM: 20 μM test compound; for Effect on 6-TU formation at 3 μM: 3 μM test compound; for IC50 (6-MP)/IC50 (Xanthine): ratio of IC50 values, both substrates 5 μM; for Effect on 6-TU formation at 0.25 μM: 0.25 μM test compound
T1 construct: Xanthine oxidase (from bovine milk); purchased Sigma-Aldrich; host or cells: bovine milk (natural source)
T1 sequence (P80457 whole entry): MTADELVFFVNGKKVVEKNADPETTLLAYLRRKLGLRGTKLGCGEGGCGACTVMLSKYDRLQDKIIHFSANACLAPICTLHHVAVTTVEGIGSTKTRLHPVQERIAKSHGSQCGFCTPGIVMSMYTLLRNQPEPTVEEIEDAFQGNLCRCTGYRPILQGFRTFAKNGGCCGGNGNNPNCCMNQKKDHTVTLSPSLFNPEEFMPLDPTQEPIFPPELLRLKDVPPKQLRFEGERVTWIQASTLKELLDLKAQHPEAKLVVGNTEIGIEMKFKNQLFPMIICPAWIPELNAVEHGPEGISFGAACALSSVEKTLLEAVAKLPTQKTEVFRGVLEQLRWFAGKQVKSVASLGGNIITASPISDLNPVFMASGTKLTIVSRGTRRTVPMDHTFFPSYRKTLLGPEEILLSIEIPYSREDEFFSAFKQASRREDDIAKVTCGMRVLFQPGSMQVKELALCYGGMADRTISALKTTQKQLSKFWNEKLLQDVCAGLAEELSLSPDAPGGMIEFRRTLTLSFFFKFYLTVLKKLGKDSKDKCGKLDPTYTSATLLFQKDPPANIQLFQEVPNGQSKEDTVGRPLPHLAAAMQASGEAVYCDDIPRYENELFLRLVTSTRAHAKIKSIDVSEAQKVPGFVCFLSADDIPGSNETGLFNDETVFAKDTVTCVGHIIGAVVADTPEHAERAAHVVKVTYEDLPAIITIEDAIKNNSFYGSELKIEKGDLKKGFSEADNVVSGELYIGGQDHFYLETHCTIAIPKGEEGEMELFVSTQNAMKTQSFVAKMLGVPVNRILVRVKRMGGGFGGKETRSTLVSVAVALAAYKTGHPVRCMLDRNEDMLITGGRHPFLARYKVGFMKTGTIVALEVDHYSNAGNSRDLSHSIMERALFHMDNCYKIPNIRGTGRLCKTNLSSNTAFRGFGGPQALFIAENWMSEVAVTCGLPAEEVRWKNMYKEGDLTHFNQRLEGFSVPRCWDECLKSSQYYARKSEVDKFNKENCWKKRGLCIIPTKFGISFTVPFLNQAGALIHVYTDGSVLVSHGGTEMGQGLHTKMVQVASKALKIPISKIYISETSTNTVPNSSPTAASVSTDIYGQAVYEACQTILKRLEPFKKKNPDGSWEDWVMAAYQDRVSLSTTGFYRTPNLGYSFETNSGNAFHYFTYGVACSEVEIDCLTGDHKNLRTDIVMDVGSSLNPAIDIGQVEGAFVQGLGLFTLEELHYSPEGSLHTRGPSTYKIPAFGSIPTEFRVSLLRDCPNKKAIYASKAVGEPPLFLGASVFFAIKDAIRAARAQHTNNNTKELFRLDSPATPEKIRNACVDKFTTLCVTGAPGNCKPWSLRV
Description: The incubations were carried out in 0.05 M sodium phosphate buffer (pH 7.5; final volume of incubates: 500 μL). The reaction started with the addition of the enzyme, and was stopped with 30 μL of 6 M HClO4 20, 40, or 60 min later. Thereafter, the samples were vortexed and centrifuged at 14,000× g for 5 min at room temperature. A 300-μL aliquot of the supernatant was carefully removed, after which 36 μL of 1 M KOH was added to these aliquots. Samples were cooled to 4 °C to enhance the precipitation of the formed KClO4, and centrifuged at 14,000× g for 5 min at 4 °C. The supernatants were carefully removed and the substrate together with metabolites were analyzed by HPLC (see details in Section 4.5). 6-MP is oxidized to 6-TX followed by 6-TU in the two-step reaction.
Quantitation of 6-MP, 6-TX, and 6-TU was performed by the previously described method with minor modifications.

[2] = target: T1, Xanthine oxidase (from bovine milk); assay: XO assay with xanthine substrate (uric acid formation, HPLC); type: biochemical; conditions: for Effect on uric acid formation at 20 μM: 20 μM test compound (four-fold vs. substrate); for Effect on urate formation at 10 μM: 10 μM flavonoid, 15 min preincubation, 8 min
Description: Xanthine (5 μM) was incubated with 0.0012 U/mL XO in the absence or presence of inhibitors (0–20 μM). Incubations were started with the addition of the enzyme (final volume of incubates: 500 μL), and stopped after 4, 8, and 12 min with 30 μL of 6 M HClO4. Thereafter, the samples were vortexed, after which 97 μL of 1 M KOH was added, then samples were cooled to 4 °C and centrifuged. Other experimental conditions were the same as described in Section 4.2. Xanthine and uric acid were quantified by HPLC (see details in Section 4.5).
(§1) Quantification of xanthine, hypoxanthine, and uric acid was performed by the previously described method with minor modifications.

[3] = cited from earlier work; for Therapeutic peak plasma concentrations: single 200 mg oral dose of APU
[4] = target: T1, Xanthine oxidase (from bovine milk); assay: XO assay with hypoxanthine substrate (xanthine + uric acid formation, HPLC); type: biochemical
Description: The experiments were started with the addition of the enzyme and stopped after 4 min with 30 μL of 6 M HClO4. Other experimental conditions were the same as described in Section 4.3. XO-catalyzed oxidation of hypoxanthine results in the formation of xanthine and uric acid in two consecutive steps.
as §1

XO = conditions: cited from earlier work
[5] = cited from earlier work
[6] = cited from earlier work; remark: listed apart in the source
[7] = cited from earlier work; remark: listed apart in the source
[8] = 5 μM 6-MP, 40 min incubation, 6-TU formation, read-out: 6-MP Oxidation IC50
[9] = 5 μM xanthine, 8 min incubation, uric acid formation, read-out: Xanthine Oxidation IC50

With `COc1ccc(C(=O)O)c(O)c1` [2H4MBA, 4-Methoxysalicylic acid] the “Effect on 6-TU formation at 20 μM” value ([1]; 5 μM 6-MP) was “significant decreases” and the “Effect on uric acid formation at 20 μM” value ([2]; 5 μM xanthine) was “inhibited of uric acid formation significantly”.
For `O=C(O)Cc1ccccc1O` [2HPAA, 2-Hydroxyphenylacetic acid], the “Effect on 6-TU formation at 20 μM” value ([1]; 5 μM 6-MP) was “significant decreases”.
In the case of `O=C(O)/C=C/c1cccc(O)c1` [3CA, 3-Coumaric acid], the “Effect on 6-TU formation at 20 μM” value ([1]; 5 μM 6-MP) is reported as “significant decreases”.
In the case of `COc1ccc(CC(=O)O)cc1O` [3H4MPAA, 3-Hydroxy-4-methoxyphenylacetic acid], the “Effect on 6-TU formation at 20 μM” value ([1]; 5 μM 6-MP) is reported as “significant decreases”.
With `O=C(O)CCc1ccccc1` [3PPA, 3-Phenylpropionic acid] the “Effect on 6-TU formation at 20 μM” value ([1]; 5 μM 6-MP) was “significant decreases”.
In the case of `O=C(O)c1ccc(O)cc1` [4HBA, 4-Hydroxybenzoic acid], the “Effect on 6-TU formation at 20 μM” value ([1]; 5 μM 6-MP) is reported as “significant decreases”.
With `O=C(O)Cc1ccc(CO)cc1` [4HMPAA, 4-(Hydroxymethyl)phenylacetic acid] the “Effect on 6-TU formation at 20 μM” value ([1]; 5 μM 6-MP) was “significant decreases”.
In the case of `O=C(O)Cc1ccc(O)cc1` [4HPAA, 4-hydroxyphenylacetic acid], the “Effect on 6-TU formation at 20 μM” value ([1]; 5 μM 6-MP) is reported as “significant decreases”.
In the case of `CC(=O)c1ccc(O)cc1O` [24DHAP, 2,4-Dihydroxyacetophenon], the “Effect on 6-TU formation at 20 μM” value ([1]; 5 μM 6-MP) is reported as “significant decreases”.
In the case of `O=C(O)c1ccc(O)cc1O` [24DHBA, 2,4-Dihydroxybenzoic acid], the “Effect on 6-TU formation at 20 μM” value ([1]; 5 μM 6-MP) is reported as “significant decreases”.
With `O=C(O)CCc1cccc(O)c1` [33HPPA, 3-(3-Hydroxyphenyl)propionic acid] the “Effect on 6-TU formation at 20 μM” value ([1]; 5 μM 6-MP) was “significant decreases”.
In the case of `O=C(O)CCc1ccc(O)cc1` [34HPPA, 3-(4-Hydroxyphenyl)propionic acid], the “Effect on 6-TU formation at 20 μM” value ([1]; 5 μM 6-MP) is reported as “significant decreases”.
With `O=C(O)CCc1ccc(O)cc1O` [324DHPPA, 3-(2,4-Dihydroxyphenyl)propionic acid] the “Effect on 6-TU formation at 20 μM” value ([1]; 5 μM 6-MP) was “significant decreases”.
In the case of `Oc1ncnc2[nH]ncc12` [APU, Allopurinol, reference compound], the “Effect on 6-TU formation at 3 μM” value ([1]; 5 μM 6-MP) is given as “only a slight effect” and the “Therapeutic peak plasma concentrations” value [3] is given as 35 to 40 µM.
For `O=C(O)c1ccccc1` [BA, Benzoic acid], the “Effect on 6-TU formation at 20 μM” value ([1]; 5 μM 6-MP) was “significant decreases”.
With `O=C(O)CNC(=O)c1ccccc1` [HIPA, Hippuric acid] the “Effect on 6-TU formation at 20 μM” value ([1]; 5 μM 6-MP) was “significant decreases”.
In the case of `COc1cc(-c2oc3cc(O)cc(O)c3c(=O)c2OC2OC(C(=O)O)C(O)C(O)C2O)ccc1O` (stereo not drawn) [I3G, Isorhamnetin-3-glucuronide], the IC50 [1, 8] is reported as over 20000 nM, the “Effect on 6-TU formation at 20 μM” value ([1]; 5 μM 6-MP) is reported as “did not inhibit” and the IC50 [2, 9] is reported as over 20000 nM. The “Effect on uric acid formation at 20 μM” value ([2]; 5 μM xanthine) was “did not inhibit”.
With `COc1cc(-c2oc3cc(O)cc(O)c3c(=O)c2O)ccc1O` [IR, Isorhamnetin] the IC50 [1] was 600 nM, the “Effect on 6-TU formation at 3 μM” value ([1]; 5 μM 6-MP) was “almost completely inhibited” and the “IC50 (6-MP)/IC50 (Xanthine)” value [1] was 0.86. The IC50 [2] was 700 nM and the “Effect on urate formation at 10 μM” value ([2]; 5 μM xanthine) was “almost completely abolished”.
In the case of `O=c1[nH]c(=O)c2c[nH]nc2[nH]1` [Oxipurinol, oxipurinol, reference compound], the IC50 [1, 8] is listed as 10000 nM, the “Therapeutic peak plasma concentrations” value [3] is listed as 35 to 40 µM and the IC50 [2, 9] is listed as 4500 nM. The IC50 [4] was over 3000 nM.
In the case of `Oc1cccc(O)c1O` [PYR, Pyrogallol], the IC50 [1, 8] is reported as 10100 nM, the “Effect on 6-TU formation at 20 μM” value ([1]; 5 μM 6-MP) is reported as “significant decreases” and the inhibition at 20 µM ([1]; 20 μM, 5 μM 6-MP, read-out: Inhibitory effect on 6-MP oxidation at 20 μM) is reported as over 50%. The “IC50 (6-MP)/IC50 (Xanthine)” value [1] was 5.61, the IC50 [2, 9] was 1800 nM and the “Effect on uric acid formation at 20 μM” value ([2]; 5 μM xanthine) was “inhibited of uric acid formation significantly”. The inhibition at 20 µM ([2]; 20 μM, 5 μM xanthine, read-out: Inhibitory effect on xanthine oxidation at 20 μM) was over 50%.
For `O=C(O)C1OC(Oc2c(-c3ccc(O)c(O)c3)oc3cc(O)cc(O)c3c2=O)C(O)C(O)C1O` (stereo not drawn) [Q3G, Quercetin-3-glucuronide], the IC50 [1, 8] was over 20000 nM, the “Effect on 6-TU formation at 20 μM” value ([1]; 5 μM 6-MP) was “did not inhibit” and the IC50 [2, 9] was over 20000 nM. The “Effect on uric acid formation at 20 μM” value ([2]; 5 μM xanthine) was “did not inhibit” and the “Inhibition of XO-catalyzed xanthine oxidation” value (XO) was “only weak inhibitors”.
For `O=c1c(O)c(-c2ccc(O)c(OS(=O)(=O)O)c2)oc2cc(O)cc(O)c12` [Q3′S, Quercetin-3′-sulfate], the “Effect on 6-TU formation at 0.25 μM” value ([1]; 5 μM 6-MP) was “significantly decreased”, the “Effect on 6-TU formation at 3 μM” value ([1]; 5 μM 6-MP) was “almost completely inhibited” and the IC50 [1, 8] was 500 nM. The “IC50 (6-MP)/IC50 (Xanthine)” value [1] was 1.25, the IC50 [2, 9] was 400 nM and the “Effect on urate formation at 10 μM” value ([2]; 5 μM xanthine) was “almost completely abolished”. The IC50 ([4]; 5 μM hypoxanthine, 4 min incubation, xanthine + uric acid formation, read-out: Hypoxanthine oxidation IC50) was 210 nM.
For `O=c1c(O)c(-c2ccc(O)c(O)c2)oc2cc(O)cc(O)c12` [Q, Quercetin], the “Effect on 6-TU formation at 0.25 μM” value ([1]; 5 μM 6-MP) is given as “only weak inhibitory action”, the “Effect on 6-TU formation at 3 μM” value ([1]; 5 μM 6-MP) is given as “almost completely inhibited” and the “Peak plasma concentrations of total Q” value ([3]; repeated daily oral administration of 1000 mg Q) is given as “low micromolar range”. For the same molecule, the “Effect on urate formation at 10 μM” value ([2]; 5 μM xanthine) was “almost completely abolished”, the Oral bioavailability [5] was “low” and the “Serum urate levels in hyperuricemic mice” value ([6]; 100 mg/kg, hyperuricemic mice) was “decreased the serum urate levels”. The “Serum urate levels in normal or hyperuricemic mice” value ([6]; 400 mg/kg orally administered) was “failed to decrease the serum urate levels”, the “Serum uric acid levels, human” value ([7]; 1000 or 2000 mg/day) was “does not influence the serum uric acid levels” and the “Serum urate, human” value ([7]; four-week treatment, 500 mg/day) was “minimal reduction in serum urate”.
In the case of `O=c1c(OS(=O)(=O)O)c(-c2ccc(O)c(O)c2)oc2cc(O)cc(O)c12` [Q-3-sulfate], the “Inhibition of XO-catalyzed xanthine oxidation” value (XO) is given as “inhibited XO only at very high concentrations”.
For `O=C(O)[C@H]1O[C@@H](Oc2cc(-c3oc4cc(O)cc(O)c4c(=O)c3O)ccc2O)[C@H](O)[C@@H](O)[C@@H]1O` [Q-3′-glucuronide], the “Inhibition of XO-catalyzed xanthine oxidation” value (XO) is given as “similarly strong inhibitors of xanthine oxidation as Q”.
In the case of `O=C(O)[C@H]1O[C@@H](Oc2ccc(-c3oc4cc(O)cc(O)c4c(=O)c3O)cc2O)[C@H](O)[C@@H](O)[C@@H]1O` [Q-4′-glucuronide], the “Inhibition of XO-catalyzed xanthine oxidation” value (XO) is given as “similarly strong inhibitors of xanthine oxidation as Q”.
For `O=C(O)[C@H]1O[C@@H](Oc2cc(O)c3c(=O)c(O)c(-c4ccc(O)c(O)c4)oc3c2)[C@H](O)[C@@H](O)[C@@H]1O` [Q-7-glucuronide], the “Inhibition of XO-catalyzed xanthine oxidation” value (XO) is listed as “only weak inhibitors”.
For `COc1ccc(-c2oc3cc(O)cc(O)c3c(=O)c2O)cc1O` [TAM, Tamarixetin], the “Effect on 6-TU formation at 0.25 μM” value ([1]; 5 μM 6-MP) was “significantly decreased”, the “Effect on 6-TU formation at 3 μM” value ([1]; 5 μM 6-MP) was “almost completely inhibited” and the IC50 [1, 8] was 200 nM. For the same molecule, the “IC50 (6-MP)/IC50 (Xanthine)” value [1] was 1.00, the IC50 [2, 9] was 200 nM and the “Effect on urate formation at 10 μM” value ([2]; 5 μM xanthine) was “almost completely abolished”.
